Twelve compounds from patent US8497270B2, “Macrocyclic integrase inhibitors” (Elanco Animal Health Ireland Limited, priority 2009, dated 2013) can be followed below.

Like-named read-outs stand apart in the source and are kept apart here.

Data set [1] concerns HIV-1 site-directed mutant strain Q148R. Kind of data set: Assay 1: inhibitory activity on HIV replication, Q148R mutant (MT4-LTR-EGFP cells). The following applies: Human immunodeficiency virus 1, 72 h, read-out: Q148R EC50. It is filed as cell-based. The source says:
(§1) Assay 1—Inhibitory Activity on HIV Replication Wild Type, N155H Mutant, and Q148R Mutant
(§2) MT4-LTR-enhanced green fluorescent protein (EGFP) cells were obtained by transfecting MT4 cells with a selectable construct encompassing the coding sequences for the HIV LTR as a promoter for the expression of EGFP and subsequent selection of permanently transfected cells. MT4-cytomegalovirus (CMV)-EGFP cells were obtained by selection for permanently transformed MT4 cells with a CMV-EGFP reporter gene. Cell lines were maintained in RPMI 1640 medium supplemented with 10% heat-inactivated fetal calf serum, 2 mM L-glutamine, 0.1% NaHCO3, and antibiotics (0.02% gentamicin and 0.8% G418) and incubated in a humidified incubator with a 5% CO2 atmosphere at 37° C.
(§3) N155H and Q148R mutant Integrase coding sequences were constructed in the pUC19-5′HXB2D vector (XbaI-SalI fragment of pHXB2D), containing the HIV-1 clone HXB2D IN coding sequence, by using a QuikChange site-directed mutagenesis kit (Stratagene, La Jolla, Calif.) and high-performance liquid chromatography-purified primers (Genset Oligos, La Jolla, Calif.). Altered plasmid sequences were confirmed by dideoxyribose sequencing.
(§4) For generation of site directed mutant (SDM) virus stocks, MT4 cells were subcultured at a density of 250,000 cells/ml on the day before transfection. Cells were pelleted and resuspended in phosphate-buffered saline at a concentration of 3.1×10^6 cells/ml. A 0.8-ml portion ([…]) was used for each transfection. Transfections were performed with a Bio-Rad Gene Pulser (Bio-Rad, Hercules, Calif.) with 0.4-cm electrode cuvettes (Bio-Rad). Cells were electroporated with 10 μg of SalI-linearized pUC19-3′HXB2D (SalI-XbaI fragment of pHXB2D) and 5 μg of SalI-digested SDM at 250 μF and 300 V, followed by a 30-min incubation at room temperature. Ten milliliters of fresh culture medium was then added to the suspension of transfected cells, and incubation was performed at 37° C. in a humidified atmosphere with 5% CO2. Cell cultures were monitored for the appearance of cytopathic effect (CPE). At virus breakthrough (full CPE), culture supernatant was typically harvested by centrifugation at 8 to 10 days after transfection and was stored at −80° C. for subsequent drug susceptibility determination.
(§5) The antiviral activity of different inhibitors was determined in a cell-based HIV-1 replication assay. MT4-LTR-EGFP cells (150,000 cells/ml) were infected with HIV-1 (IIIB or site-directed mutant strains N155H or Q148R; multiplicity of infection [MOI] of 0.0025) in the presence or absence of inhibitor. After 3 days of incubation, the inhibition of HIV replication was quantified by measuring EGFP fluorescence, and expressed as the inhibitor concentration required for 50% inhibition of HIV-1 replication in cell culture (IIIB EC50—see Table 1).

The test system of another data set is HIV-1 LAI (IIIB). Kind of data set: Assay 3: inhibitory activity on HIV replication wild type in the presence of human serum. It is filed as cell-based. The following applies: Human immunodeficiency virus 1, IIIB, 96 h; in the presence of 50% human serum, 4 days, resazurin cell viability. The protocol:
Assay 3—Inhibitory Activity on HIV Replication Wild Type in the Presence of Human Serum
For the Antiviral assay in the presence of 50% human serum MT-4-LTR-EGFP cells were infected with HIV-1 LAI (IIIB) at a MOI of 0.001 to 0.01 CCID50/cell in RPMI1640 medium. Following 1 h of incubation, cells were washed and plated into a 96-well plate containing serial dilutions of compound in the presence of 10% fetal calf serum (FCS), or 50% human serum. After 4 days incubation, the EC50 in the presence of 50% human serum (EC50/HS—see Table 1) was determined by a cell viability assay using resazurin (as described by Fields, R. D., and M. V. Lancaster (1993) Am. Biotechnol. Lab. 11:48-50).

A short description of data set [2]: Assay 2: cellular cytotoxic activity. In kind it is cell-based. The settings on record: human, mock-infected MT4-CMV-EGFP cells, EGFP fluorescence. The text has this:
MT4-LTR-enhanced green fluorescent protein (EGFP) cells were obtained by transfecting MT4 cells with a selectable construct encompassing the coding sequences for the HIV LTR as a promoter for the expression of EGFP and subsequent selection of permanently transfected cells. MT4-cytomegalovirus (CMV)-EGFP cells were obtained by selection for permanently transformed MT4 cells with a CMV-EGFP reporter gene. Cell lines were maintained in RPMI 1640 medium supplemented with 10% heat-inactivated fetal calf serum, 2 mM L-glutamine, 0.1% NaHCO3, and antibiotics (0.02% gentamicin and 0.8% G418) and incubated in a humidified incubator with a 5% CO2 atmosphere at 37° C. Assay 2—Cellular Cytotoxic Activity The cytotoxicity of inhibitors was determined in parallel to the experiments under assay 1 on mock-infected MT4-CMV-EGFP cells (150,000 cells/ml) cultured in the presence or absence of different concentrations of compounds of formula I. After 3 days of incubation, inhibition of cell proliferation was quantified by measuring the EGFP fluorescence and expressed as the compound concentration that inhibits cell growth by 50% (CC50—see Table 1).

In a further data set the test system is HIV-1 IIIB. The experiment in a line: Assay 1: inhibitory activity on HIV replication, wild type (MT4-LTR-EGFP cells). In kind it is cell-based. The settings on record: Human immunodeficiency virus 1, 72 h, 3 days, EGFP fluorescence.
Excerpt: as §1, §2, §5

For data set [3], the system named is HIV-1 site-directed mutant strain N155H. Kind of data set: Assay 1: inhibitory activity on HIV replication, N155H mutant (MT4-LTR-EGFP cells). The following applies: Human immunodeficiency virus 1, 72 h, read-out: N155H EC50. It is filed as cell-based.
Excerpt: as §1, §2, §3, §4, §5

The target in data set [4] is recombinant HIV-1 integrase (Human immunodeficiency virus type 1 group M subtype B (isolate HXB2) (HIV-1), UniProt P04585). Kind of data set: Assay 4: 3dQ assay, inhibition of HIV integrase mediated 3'-processing. In kind it is biochemical. The protocol:
The inhibition of HIV integrase mediated 3′-processing was determined in a biochemical assay. For this a short (˜20 bp) double stranded U5 LTR substrate was generated by hybridization of 5 μM 5′-[…]-3′-alx488 (SEQ ID 1) with 7 μM dabcyl-5′-[…]-3′ (SEQ ID 2) in 10 mM Tris pH 8.0, 100 mM NaCl (heating to 95° C. and gradually cooling over 30′ to RT). Integrase inhibition was determined by incubation of 150 nM recombinant HIV-1 integrase, 100 nM recombinant LEDGF and 50 nM U5 LTR substrate in reaction buffer (25 mM MOPS pH7.2, 10 mM DTT, 10 mM MgCl2, 15 mM potassium glutamate and 2.5% DMSO) in the presence or absence of different concentrations test compounds. After 2 h at 37° C. reactions were stopped by adding ⅕ volumes of 0.5% SDS and fluorescence was measured (excitation at 488 nm, emission at 538 nm) and expressed as the inhibitor concentration required for 50% inhibition of the HIV integrase (IC50—see Table 1).

[5] abbreviates: 3'-processing, 150 nM integrase, 100 nM LEDGF, 50 nM U5 LTR substrate, 2 h at 37° C., read-out: IC50.

As for `O=C1NCCCCCCNc2nc(c(O)c3ncccc23)C(=O)NCc2ccc(F)cc21` [Compound 1], the EC50 was 350 nM in data set [1], 35 nM in the data set with HIV-1 LAI (IIIB), 17 nM with HIV-1 IIIB and 420 nM in data set [3]. This compound also showed a CC50 at 3 days in data set [2] of 20700 nM. Also, in data set [4] (setting [5]), the IC50 came out at 950 nM.
`O=C1NCCCNc2nc(c(O)c3ncccc23)C(=O)NCc2ccc(F)cc21` [Compound 2]: the EC50 stood at 36700 nM in data set [1] and 8900 nM in the data set with HIV-1 IIIB. The compound also came in with a 50% cytotoxic concentration (CC50) at 3 days in data set [2] of 61000 nM. Also, the IC50 in data set [4] was 68000 nM.
Consider `O=C1NCCCCNc2nc(c(O)c3ncccc23)C(=O)NCc2ccc(F)cc21` [Compound 3], for which the EC50 in data set [1] came out at 28000 nM; with HIV-1 IIIB, 1060 nM. Moreover, in data set [2], the CC50 at 3 days is greater than 98000 nM.
In the case of `O=C1NCCCCCNc2nc(c(O)c3ncccc23)C(=O)NCc2ccc(F)cc21` [Compound 4], the EC50 came out at 7200 nM in data set [1], 130 nM in the data set with HIV-1 LAI (IIIB), 71 nM with HIV-1 IIIB and 1900 nM in data set [3]. The same compound had a CC50 at 3 days in data set [2] greater than 31000 nM.
In the case of `O=C1NCCCCCCCNc2nc(c(O)c3ncccc23)C(=O)NCc2ccc(F)cc21` [Compound 5], the EC50 came to 440 nM in data set [1], 51 nM in the data set on HIV-1 LAI (IIIB), 17 nM in the data set on HIV-1 IIIB and 390 nM in data set [3]. Half-maximal cytotoxicity in data set [2] (CC50 at 3 days) was put at 7700 nM. In addition, the 50% inhibitory concentration (IC50) in data set [4] (setting [5]) was determined as 1000 nM.
Regarding `CN1c2nc(c(O)c3ncccc23)C(=O)NCc2ccc(F)cc2C(=O)NCCCCCS1(=O)=O` [Compound 6], the EC50 in data set [1] worked out at 8 nM; in the data set on HIV-1 LAI (IIIB), 3 nM; in the data set on HIV-1 IIIB, 4 nM; in data set [3] it was 83 nM. The same compound returned a CC50 at 3 days in data set [2] of 27700 nM. Further, in data set [4] (setting [5]), the IC50 stood at 250 nM.
`CN1c2nc(c(O)c3ncccc23)C(=O)NCc2ccc(F)cc2C(=O)NCCCCS1(=O)=O` [Compound 7]: the EC50 turned out to be 20 nM in data set [1], 3 nM in the data set with HIV-1 LAI (IIIB), 4 nM in the data set on HIV-1 IIIB and 260 nM in data set [3]. The same compound registered a CC50 at 3 days in data set [2] of 13300 nM. Further, the IC50 in data set [4] (setting [5]) turned out to be 360 nM.
On to `O=C1NCCCCN2CCN(CC2)c2nc(c(O)c3ncccc23)C(=O)NCc2ccc(F)cc21` [Compound 8], for which the EC50 was found to be 850 nM in data set [1], 18 nM in the data set on HIV-1 LAI (IIIB), 18 nM in the data set on HIV-1 IIIB and 1900 nM in data set [3]. The compound further displayed a cytotoxic concentration (CC50) at 3 days in data set [2] of 3100 nM. For the same compound, in data set [4] (setting [5]), the IC50 worked out at 1200 nM.
Turning to `O=C1NCCCN2CCN(CC2)c2nc(c(O)c3ncccc23)C(=O)NCc2ccc(F)cc21` [Compound 9], the EC50 in data set [1] was determined as 460 nM; with HIV-1 LAI (IIIB) it was 25 nM; in the data set on HIV-1 IIIB, 17 nM; in data set [3], 1510 nM. This compound also yielded a CC50 at 3 days in data set [2] of 43000 nM. For the same compound, in data set [4] (setting [5]), the IC50 is 1600 nM.
Consider `O=C1NCc2ccc(F)cc2OCCCCC(=O)N2CCN(CC2)c2nc1c(O)c1ncccc21` [Compound 10], for which the EC50 in data set [1] was determined as 39 nM; in the data set on HIV-1 LAI (IIIB), 27 nM; in the data set on HIV-1 IIIB, 3 nM; in data set [3] it was 110 nM. In addition, in data set [2], the CC50 at 3 days was greater than 24000 nM.
On the same counts, the results for `CN1c2nc(c(O)c3ncccc23)C(=O)NCc2ccc(F)cc2OCCCCS1(=O)=O` [Compound 11] are 24 nM, 16 nM, 5 nM, 310 nM and greater than 24000 nM.
Turning to `CN1c2nc(c(O)c3ncccc23)C(=O)NCc2ccc(F)cc2OCCCCCS1(=O)=O` [Compound 12], the concentration for a half-maximal effect (EC50) is 12 nM in data set [1], 40 nM in the data set on HIV-1 LAI (IIIB), 1 nM in the data set with HIV-1 IIIB and 170 nM in data set [3]. In data set [2], this compound showed a CC50 at 3 days greater than 98000 nM. Also, in data set [4] (setting [5]), the IC50 turned out to be 200 nM.
